Measurements as given in US7855290B2, “Pyridine derivatives and pyrimidine derivatives (3)” (Eisai R&D Management Co., Ltd., priority 2005, dated 2010).

Target: T1, His6-HGFR (HGFR cytoplasmic domain) (Homo sapiens, UniProt P08581)
T1 construct: made in house; host or cells: Sf9 insect cells (Spodoptera frugiperda), baculovirus, pFastBac-HT vector
Experiment: Inhibitory activity against HGFR tyrosine kinase activity (HTRF)
Format: biochemical
Conditions: biotin-poly(GT), ATP, 30° C. 10 min
Description: The cytoplasmic domain of HGFR (Genbank Accession No. J02958) is a 1.3 kb DNA fragment beginning with Lys974 and including a stop codon, and described by Park et al. (Proc. Natl. Acad. Sci. U.S.A. 84(18), 6379-6383, 1987). The DNA fragment was isolated from the human placental cDNA library (purchased from Clontech) by PCR (TaKaRa Ex Taq™ Kit, purchased from TaKaRa) using two kinds of primers (SEQ ID NO: 1,5′-[…]-3′ and SEQ ID NO: 2,5′-[…]-3′, purchased from Invitrogen). The DNA fragment was cloned into a baculovirus transplace vector (pFastBac™-HT (purchased from GIBCO BRL)) to produce a recombinant construct. […] EGFR was purchased from Sigma (Production No. E-2645).
To the suspension of Sf9 cells (3×10^8 cells) in SF-900II medium (purchased from Invitrogen) containing 2% FBS was added a solution of HGFR transfected baculovirus above (4 ml), followed by a shaking culture at 27° C. for 48 hrs. The cells infected with the HGFR transfected baculovirus were centrifuged at 1,000 rpm, 4° C. for 5 min to remove the supernatant. The precipitated infected cells were suspended in 80 ml of ice-cold PBS, and centrifuged at 1,000 rpm, 4° C. for 5 min to remove the supernatant. The precipitated infected cells were suspended in 40 ml of ice-cold Lysis Buffer (50 mM Tris-HCl (pH 8.5), 5 mM 2-mercaptoethanol, 100 mM KCl, 1 mM PMSF and 1% (v/v) NP-40). The suspension was centrifuged at 12,000 rpm, 4° C. for 30 min to provide a supernatant.
The supernatant was loaded onto an Ni-NTA agarose column (3 ml, purchased from Qiagen) equilibrated with 30 ml of Buffer A (20 mM Tris-HCl (pH 8.5), 5 mM 2-mercaptoethanol, 500 mM KCl, 20 mM imidazole and 10% (v/v) glycerol). The column was washed with 30 ml of Buffer A, 6 ml of Buffer B (20 mM Tris-HCl (pH 8.5), 5 mM 2-mercaptoethanol, 1 M KCl, and 10% (v/v) glycerol) and 6 ml of Buffer A in this order. Then, the column was eluted with 6 ml of Buffer C (20 mM Tris-HCl (pH 8.5), 5 mM 2-mercaptoethanol, 100 mM KCl, 100 mM imidazole, and 10% (v/v) glycerol) to provide a fraction. The fraction was entrapped in a dialysis membrane (purchased from Spectrum Laboratories), dialyzed at 4° C. overnight with 1 L of dialysis buffer (20 mM Tris-HCl (pH 7.5), 10% (v/v) glycerol, 1 mM dithiothreitol, 0.1 mM Na3VO4 and 0.1 mM EGTA), and stored at −80° C. until used. […] The VEGFR2 cytoplasmic domain, the FGFR1 cytoplasmic domain, and the PDGFRβ cytoplasmic domain were fused with six histidine at the N terminus by the similar method to produce respective recombinant proteins (His6-VEGFR2, His6-FGFR1, and His6-PDGFRβ).
To each well of a 96-well round plate (purchased from NUNC, Production No. 163320) were added 10 μl of a solution for kinase reaction (200 mM Hepes (pH 7.4), 80 mM MgCl2, 16 mM MnCl2 and 2 mM Na3VO4), 250 ng of biotinylated poly(Glu4: Tyr1) (biotin-poly(GT), purchased from Japan Schering) (6 μl, 15-fold diluted with distilled water), 30 ng of His6-HGFR (10 μl, 60-fold diluted with 0.4% BSA) and a test substance dissolved in dimethylsulfoxide (4 μl, 100-fold diluted with 0.1% BSA) to mess up to 30 μl. To the well was added 10 μl of 4 μM ATP (purchased from Sigma) diluted with distilled water to incubate at 30° C. for 10 min, followed by adding 10 μl of 500 mM EDTA (pH 8.0) (purchased from Wako Pure Chemicals) to provide a kinase reaction solution.
The tyrosine-phosphorylated biotin-poly(GT) was detected using the Homogenous Time-Resolved Fluorescence (HTRF) method (Analytical Biochemistry, 269, 94-104, 1999).

T1 sequence (P08581 956-1390 limits assumed): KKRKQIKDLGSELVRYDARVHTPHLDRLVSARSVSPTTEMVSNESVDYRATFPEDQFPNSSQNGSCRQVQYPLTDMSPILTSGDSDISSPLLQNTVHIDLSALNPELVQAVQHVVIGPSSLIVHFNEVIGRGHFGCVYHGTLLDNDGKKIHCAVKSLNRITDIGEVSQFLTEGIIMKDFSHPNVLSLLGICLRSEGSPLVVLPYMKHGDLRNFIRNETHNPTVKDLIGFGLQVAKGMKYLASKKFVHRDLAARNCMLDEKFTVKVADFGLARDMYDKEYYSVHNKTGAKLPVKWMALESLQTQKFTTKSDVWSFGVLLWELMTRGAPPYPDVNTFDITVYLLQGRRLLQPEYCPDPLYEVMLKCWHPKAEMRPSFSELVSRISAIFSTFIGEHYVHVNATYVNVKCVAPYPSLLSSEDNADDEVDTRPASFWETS

| IC50 [nM] | SMILES |
| --- | --- |
| 46 | CN(C)[C@@H]1CCN(C(=O)Nc2cc(Oc3ccc(NC(=O)C4(C(=O)Nc5ccc(F)cc5)CC4)cc3F)ccn2)C1 [Example 36, N-(4-{[2-({[(3R)-3-(Dimethylamino)pyrrolidin-1-yl]carbonyl}amino)pyridin-4-yl]oxy}-3-fluorophenyl)-N′-(4-fluorophenyl)cyclopropane-1,1-dicarboxamide] |
| 64 | CN1CCC(N2CCN(C(=O)Nc3cc(Oc4ccc(NC(=O)C5(C(=O)Nc6ccc(F)cc6)CC5)c(F)c4)ccn3)CC2)CC1 [Example 16, N-(2-Fluoro-4-{[2-({[4-(1-methylpiperidin-4-yl)piperazin-1-yl]carbonyl}amino)pyridin-4-yl]oxy}phenyl)-N′-(4-fluorophenyl)cyclopropane-1,1-dicarboxamide] |
| 14 | COC1CN(C(=O)Nc2cc(Oc3ccc(NC(=O)C4(C(=O)Nc5ccc(F)cc5)CC4)c(F)c3)ccn2)C1 [Example 78, N-[2-Fluoro-4-[(2-{[(3-methoxyazetidin-1-yl)carbonyl]amino}pyridin-4-yl)oxy]phenyl}-N′-(4-fluorophenyl)cyclopropane-1,1-dicarboxamide] |
| 31 | O=C(Nc1cc(Oc2ccc(NC(=O)C3(C(=O)Nc4ccc(F)cc4)CC3)cc2)ccn1)N1CCCC1 [Example 69, N-(4-Fluorophenyl)-N′-[4-({2-[(pyrrolidin-1-ylcarbonyl)amino]pyridin-4-yl}oxy)phenyl]cyclopropane-1,1-dicarboxamide] |
| 64 | CN1CCN(C2CCN(C(=O)Nc3cc(Oc4ccc(NC(=O)C5(C(=O)Nc6ccccc6)CC5)c(F)c4)ccn3)CC2)CC1 [Example 54, N-(2-Fluoro-4-{[2-({[4-(4-methylpiperazin-1-yl)piperidin-1-yl]carbonyl}amino)pyridin-4-yl]oxy}phenyl)-N′-phenylcyclopropane-1,1-dicarboxamide] |
| 19 | O=C(Nc1cc(Oc2ccc(NC(=O)C3(C(=O)Nc4ccc(F)cc4)CC3)cc2)ccn1)N1CCC1 [Example 70, N-[4-({2-[(Azetidin-1-ylcarbonyl)amino]pyridin-4-yl}oxy)phenyl]-N′-(4-fluorophenyl)cyclopropane-1,1-dicarboxamide] |
| 10 | O=C(Nc1cc(Oc2ccc(NC(=O)C3(C(=O)Nc4ccc(F)cc4)CC3)c(F)c2)ccn1)N1CC(O)C1 [Example 72, N-{2-Fluoro-4-[(2-{[(3-hydroxyazetidin-1-yl)carbonyl]amino}pyridin-4-yl)oxy]phenyl}-N′-(4-fluorophenyl)cyclopropane-1,1-dicarboxamide] |

The next lines start with the molecule.

| SMILES | IC50 [nM] |
| --- | --- |
| CN1CCC(N(C)C(=O)Nc2cc(Oc3ccc(NC(=O)C4(C(=O)Nc5ccccc5F)CC4)c(F)c3)ccn2)CC1 [Example 57, N-(2-Fluoro-4-{[2-({[methyl(1-methylpiperidin-4-yl)amino]carbonyl}amino)pyridin-4-yl]oxy}phenyl)-N′-(2-fluorophenyl)cyclopropane-1,1-dicarboxamide] | 180 |
| CN1CCC(N(C)C(=O)Nc2cc(Oc3ccc(NC(=O)C4(C(=O)Nc5ccc(F)cc5F)CC4)c(F)c3)ccn2)CC1 [Example 56, N-(2,4-Difluorophenyl)-N′-(2-fluoro-4-{[2-({[methyl(1-methylpiperidin-4-yl)amino]carbonyl}amino)pyridin-4-yl]oxy}phenyl)cyclopropane-1,1-dicarboxamide] | 110 |
| O=C(Nc1cc(Oc2ccc(NC(=O)C3(C(=O)Nc4ccc(F)cc4)CC3)c(F)c2)ccn1)N1CCC(CN2CCCC2)CC1 [Example 40, N-(4-Fluorophenyl)-N′-(2-fluoro-4-{[2-({[4-(pyrrolidin-1-ylmethyl)piperidin-1-yl]carbonyl}amino)pyridin-4-yl]oxy}phenyl)cyclopropane-1,1-dicarboxamide] | 55 |
| O=C(Nc1cc(Oc2ccc(NC(=O)C3(C(=O)Nc4ccc(F)cc4)CC3)c(F)c2)ccn1)N1CC(N2CCC2)C1 [Example 73, N-[4-({2-[(1,3′-Biazetidin-1′-ylcarbonyl)amino]pyridin-4-yl}oxy)-2-fluorophenyl]-N′-(4-fluorophenyl)cyclopropane-1,1-dicarboxamide] | 105 |
| CN(C)[C@H]1CCN(C(=O)Nc2cc(Oc3ccc(NC(=O)C4(C(=O)Nc5ccc(F)cc5)CC4)c(F)c3)ccn2)C1 [Example 46, N-(4-{[2-({[(3S)-3-(Dimethylamino)pyrrolidin-1-yl]carbonyl}amino)pyridin-4-yl]oxy}-2-fluorophenyl)-N′-(4-fluorophenyl)cyclopropane-1,1-dicarboxamide] | 64 |
| O=C(Nc1cc(Oc2ccc(NC(=O)C3(C(=O)Nc4ccc(F)cc4)CC3)c(F)c2F)ccn1)N1CC(O)C1 [Example 106, N-[2,3-Difluoro-4-[(2-{[(3-hydroxyazetidin-1-yl)carbonyl]amino}pyridin-4-yl)oxy]phenyl}-N′-(4-fluorophenyl)cyclopropane-1,1-dicarboxamide] | 16 |
| CN1CCC(N(C)C(=O)Nc2cc(Oc3ccc(NC(=O)C4(C(=O)Nc5ccccc5)CC4)c(F)c3)ccn2)CC1 [Example 48, N-(2-Fluoro-4-{[2-({[methyl(1-methylpiperidin-4-yl)amino]carbonyl}amino)pyridin-4-yl]oxy}phenyl)-N′-phenylcyclopropane-1,1-dicarboxamide] | 63 |
| CCN(CC)CCCN(C)C(=O)Nc1cc(Oc2ccc(NC(=O)C3(C(=O)Nc4ccc(F)cc4)CC3)cc2F)ccn1 [Example 44, N-(4-{[2-({[[3-(Diethylamino)propyl](methyl)amino]carbonyl}amino)pyridin-4-yl]oxy}-3-fluorophenyl)-N′-(4-fluorophenyl)cyclopropane-1,1-dicarboxamide] | 91 |
| O=C(Nc1cc(Oc2cc(F)c(NC(=O)C3(C(=O)Nc4ccc(F)cc4)CC3)cc2F)ncn1)N1CC(CO)C1 [Example 99, N-(2,5-Difluoro-4-{[4-({[3-(hydroxymethyl)azetidin-1-yl]carbonyl}amino)pyrimidin-6-yl]oxy}phenyl)-N′-(4-fluorophenyl)cyclopropane-1,1-dicarboxamide] | 33 |
| CN(C)CCN1CCC(N(C)C(=O)Nc2cc(Oc3ccc(NC(=O)C4(C(=O)Nc5ccc(F)cc5)CC4)cc3)ccn2)CC1 [Example 39, N-(4-{[2-({[{1-[2-(Dimethylamino)ethyl]piperidin-4-yl}(methyl)amino]carbonyl}amino)pyridin-4-yl]oxy}phenyl)-N′-(4-fluorophenyl)cyclopropane-1,1-dicarboxamide] | 100 |
| O=C(Nc1cc(Oc2ccc(NC(=O)C3(C(=O)Nc4ccc(F)cc4)CC3)cc2)ccn1)N1CCC(N2CCC2)CC1 [Example 13, N-{4-[(2-{[(4-Azetidin-1-ylpiperidin-1-yl)carbonyl]amino}pyridin-4-yl)oxy]phenyl}-N′-(4-fluorophenyl)cyclopropane-1,1-dicarboxamide] | 55 |
| O=C(Nc1cc(Oc2ccc(NC(=O)C3(C(=O)Nc4ccc(F)cc4)CC3)cc2)ccn1)N1CCC(CN2CCC2)CC1 [Example 27, N-(4-{[2-({f [4-(Azetidin-1-ylmethyl)piperidin-1-yl]carbonyl}amino)pyridin-4-yl]oxy}phenyl)-N′-(4-fluorophenyl)cyclopropane-1,1-dicarboxamide] | 59 |
